# According to patent US8158389B2, “Products and methods for in vivo secretion of monatin” (priority 2005, dated 2012):
# Experiments:
# [1] = tested on: E. coli MG1655::pCECNde/4978 DAT/SEQ ID NO. 42; experiment: R,R monatin excreted by E. coli with D-amino acid treatment; assay type: cell-based, Escherichia coli; conditions: 5 mM D-amino acid treatment added 3 hours following induction
# Method: For inoculum preparation, the E. coli MG1655 : : pCECNde/4978 DAT/SEQ ID NO. 42 were grown overnight at 37° C. with shaking at 250 rpm in Luria-Bertani (“LB”) medium with 25 μg/mL chloramphenicol. For the experimental treatments, Trp-1+glucose medium, a minimal medium that has been used for increased production of tryptophan in E. coli cells (Zeman et al. Folia Microbiol. 35:200-4, 1990), was prepared as follows. To 800 mL nanopure water the following reagents were added: 2 g (NH4)2SO4, 13.6 g KH2PO4. The pH was adjusted to 7.0, the volume was increased to 948 mL, and the medium was autoclaved. Following sterilization, 0.2 g MgSO4.7H2O, 0.01 g CaCl2.2H2O, and 0.5 mg FeSO4.7H2O were added to the medium in a 1.8 mL volume followed by addition of 0.2 mL of Neidhardt's micronutrient solution (Neidhardt F. C., Bloch P. L., and Smith D. F., 1974. Culture medium for Enterobacteria. J. Bacteriol. 119: 736-746). Neidhardt's medium includes (per liter): 0.18 g (NH4)6(MO7)24.4H2O, 1.24 g H3BO3, 0.36 g CoCl2.6H2O, 0.12 g CuSO4 (anhydrous), 0.8 g MnCl2.4H2O, and 0.14 g ZnSO4.7H2O. A 50% glucose solution was prepared separately and sterile-filtered. […]
# The monatin from the 48 hour samples was concentrated via a solid phase extraction (“SPE”) column (see Example 27). Then, the R,R and S,S stereoisomers were analyzed by the method of Example 13.
# [2] = biological target: T1, EmrAB efflux pump (Escherichia coli, UniProt P0AEJ0); experiment: Monatin efflux per dry cell weight after induction of the EmrAB efflux pump with CCCP; assay type: cell-based; conditions: for increase in monatin/dcw: 31 hours, vs control
# T1 construct: endogenous in cells; host or cells: E. coli MG1655 with aspC/proA on pProNde; E. coli BL21 (DE3) with aspC/proA on pET30
# T1 sequence (P02930 23-493): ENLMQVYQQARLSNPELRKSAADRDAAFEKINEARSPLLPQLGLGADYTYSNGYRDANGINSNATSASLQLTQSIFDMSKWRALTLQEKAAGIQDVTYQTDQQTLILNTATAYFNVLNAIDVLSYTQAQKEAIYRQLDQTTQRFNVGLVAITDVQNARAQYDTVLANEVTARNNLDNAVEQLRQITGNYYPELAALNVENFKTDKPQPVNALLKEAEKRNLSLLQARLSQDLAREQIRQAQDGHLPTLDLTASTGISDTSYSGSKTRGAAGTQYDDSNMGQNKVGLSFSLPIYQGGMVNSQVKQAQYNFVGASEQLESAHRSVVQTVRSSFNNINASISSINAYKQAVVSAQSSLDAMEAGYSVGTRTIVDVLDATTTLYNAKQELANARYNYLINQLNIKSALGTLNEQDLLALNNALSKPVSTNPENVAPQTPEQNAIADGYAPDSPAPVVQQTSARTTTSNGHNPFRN
# T1 sequence (P0AEJ0 whole entry): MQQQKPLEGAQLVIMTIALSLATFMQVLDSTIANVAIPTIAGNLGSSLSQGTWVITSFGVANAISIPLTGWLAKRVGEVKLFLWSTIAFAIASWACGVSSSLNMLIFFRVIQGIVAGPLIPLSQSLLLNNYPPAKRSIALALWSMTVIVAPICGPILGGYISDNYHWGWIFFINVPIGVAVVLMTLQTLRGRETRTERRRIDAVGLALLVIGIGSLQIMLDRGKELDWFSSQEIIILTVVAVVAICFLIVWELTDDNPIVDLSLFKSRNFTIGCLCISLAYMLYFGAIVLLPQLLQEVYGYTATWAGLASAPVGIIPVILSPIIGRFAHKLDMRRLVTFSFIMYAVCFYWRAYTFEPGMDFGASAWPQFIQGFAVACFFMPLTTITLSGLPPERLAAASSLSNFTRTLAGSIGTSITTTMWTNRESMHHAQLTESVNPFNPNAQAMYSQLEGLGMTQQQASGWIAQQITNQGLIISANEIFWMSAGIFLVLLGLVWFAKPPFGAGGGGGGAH
# T1 sequence (P27303 whole entry, further chain): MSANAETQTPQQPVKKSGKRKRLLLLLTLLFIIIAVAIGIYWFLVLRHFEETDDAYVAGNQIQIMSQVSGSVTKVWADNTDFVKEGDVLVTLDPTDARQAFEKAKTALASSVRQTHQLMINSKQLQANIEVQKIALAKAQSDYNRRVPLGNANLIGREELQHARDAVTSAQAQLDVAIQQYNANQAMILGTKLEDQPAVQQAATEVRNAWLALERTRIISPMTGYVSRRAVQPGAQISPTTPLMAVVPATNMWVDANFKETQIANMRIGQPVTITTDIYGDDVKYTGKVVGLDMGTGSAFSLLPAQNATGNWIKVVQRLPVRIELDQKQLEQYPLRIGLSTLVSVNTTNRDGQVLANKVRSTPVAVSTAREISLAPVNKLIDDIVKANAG
# Method: The strains used for the experiment included E. coli MG1655 : : aspC/proA/pProNde and E. coli BL21 (DE3) : : aspC/proA/pET30. For inoculum, the E. coli strains were grown overnight at 37° C. and 250 rpm in Luria-Bertani (“LB”) medium with 50 μg/mL kanamycin.
# For the experimental treatments, Trp-1+ glucose medium, a minimal medium that has been used for increased production of tryptophan in E. coli cells (Zeman, et al. Folia Microbiol. 35:200-204, (1990)), was prepared as follows. To 800 mL nanopure water the following reagents were added: 2 g (NH4)2SO4 and 13.6 g KH2PO4. The pH was adjusted to 7.0, the volume was increased to 948 mL, and the medium was autoclaved. Following sterilization, 0.2 g MgSO4.7H2O, 0.01 g CaCl2.2H2O, and 0.5 mg FeSO4.7H2O were added to the medium in a 1.8 mL volume followed by addition of 0.2 mL of Neidhardt's micronutrient solution. Neidhardt, F. C., et al., “Culture medium for Enterobacteria,” J. Bacteriol. 119:736-746 (1974). Neidhardt's medium includes (per liter): 0.18 g (NH4)6(MO7)24.4H2O, 1.24 g H3BO3, 0.36 g CoCl2.6H2O, 0.12 g CuSO4 (anhydrous), 0.8 g MnCl2.4H2O, and 0.14 g ZnSO4.7H2O. A 50% glucose solution was prepared separately and sterile-filtered. Forty mL of glucose solution and 10 mL of 1 M 3-Morpholinopropanesulfonic acid (“MOPS”) buffer were added to the base medium (950 mL) for a 1 L final volume.
# Conditions for the treatments included 250 rpm agitation throughout and 37° C. up to induction, then, 30° C. following induction. At 0.5-0.6 OD600 nm, induction of the plasmid genes was initiated. At induction, 0.5 mM IPTG, 0.5% arabinose, 0.5 mM pyridoxine hydrochloride, and 0.2 mL of Balch's vitamins were added. […] Some treatments included 10 μM carbonyl cyanide 3-chlorophenylhydrazone (“CCCP”) addition to initial medium. One treatment included an additional 10 μM CCCP dose at 3.5 hours following induction. CCCP induces the EmrB efflux system. Samples for monatin analysis and dry cell weight determination were taken at 10, 15.5, 25.6 and 31 hours. Monatin analysis was preformed as described in Example 13.
# Analyses of mixtures for monatin and tryptophan derived from in vitro or in vivo biochemical reactions were performed using a Waters/Micromass liquid chromatography-tandem mass spectrometry (“LC/MS/MS”) instrument including a Waters 2795 liquid chromatograph with a Waters 996 Photo-Diode Array (PDA) absorbance monitor placed in series between the chromatograph and a Micromass Quattro Ultima triple quadrupole mass spectrometer. LC separations were made using an Xterra MS C8 reversed-phase chromatography column, 2.1 mm×250 mm at 40° C. The LC mobile phase consisted of A) water containing 0.05% (v/v) trifluoroacetic acid and B) methanol containing 0.05% (v/v) trifluoroacetic acid.
# The gradient elution was linear from 5% B to 35% B, 0-4 min, linear from 35% B to 60% B, 4-6.5 min, linear from 60% B to 90% B, 6.5-7 min, isocratic at 90% B 7-11 min, linear from 90% B to 95% B, 11-12 min, linear from 95% B to 5% B, 12-13 min, with a 5 min re-equilibration period between runs. The flow rate was 0.25 mL/min, and PDA absorbance was monitored from 200 nm to 400 nm. All parameters of the ESI-MS were optimized and selected based on generation of protonated molecular ions ([M+H]^+) of the analytes of interest, and production of characteristic fragment ions. The following instrumental parameters were used for LC/MS/MS Multiple Reaction Monitoring (“MRM”) analysis of monatin and tryptophan: Capillary: 3.5 kV; Cone: 40 V; Hex 1: 20 V; Aperture: 0 V; Hex 2: 0 V; Source temperature: 100° C.; Desolvation temperature: 350° C.; Desolvation gas: 500 L/h; Cone gas: 50 L/h; Low mass resolution (Q1): 12.0; High mass resolution (Q1): 12.0; Ion energy: 0.2; Entrance: −5 V; Collision Energy: 8; Exit: 1V; Low mass resolution (Q2): 15; High mass resolution (Q2): 15; Ion energy (Q2): 3.5; Multiplier: 650. […]
# [3] = tested on: E. coli BL21DE3::aspCproApET30; experiment: Growth (optical density) with CCCP, wild type control; assay type: cell-based, Escherichia coli; conditions: 20 μM CCCP
# Method: (§1) Single chloramphenicol-resistant colonies were purified by restreaking on appropriate selective media and single colonies were tested by PCR as previously described for the BW25113 knockout strains, to verify the presence of the emrB and acrAB knockouts. The effects of the emrB and acrAB knockouts on the EmrAB and AcrAB transporter systems respectively were determined by assessing the phenotype of the transport mutants using appropriate antibiotics and comparison to wild type control microorganisms as shown in Table 3.1 and Table 3.2 below.
# [4] = tested on: E. coli BL21DE3ΔemrB::aspCproApET30; experiment: Growth (optical density) with CCCP, emrB knockout mutant; assay type: cell-based, Escherichia coli; conditions: 20 μM CCCP
# Method: as §1
# [5] = E. coli BL21 (DE3)::aspCproA pET30, 10 μM CCCP
# [6] = E. coli BL21 (DE3)::aspCproA pET30, 10 μM CCCP + 10 μM CCCP
# [7] = E. coli MG1655::aspCproA pProNde, 10 μM CCCP
Structure (SMILES),"48 hour Monatin/dry cell wt., Total Monatin [1] [mg/g]","increase in monatin/dcw ([2]; E. coli BL21 (DE3)::aspC proA pET30, one addition (10 μM) of CCCP)","increase in monatin/dcw ([2]; E. coli BL21 (DE3)::aspC proA pET30, two additions (20 μM) of CCCP) [fold]","Monatin/dry cell weight at run hour 10 [2, 5] [mg/g]","Monatin/dry cell weight at run hour 15.5 [2, 5] [mg/g]","Monatin/dry cell weight at run hour 25.6 [2, 5] [mg/g]","Monatin/dry cell weight at run hour 31 [2, 5] [mg/g]","Monatin/dry cell weight at run hour 10 [2, 6] [mg/g]","Monatin/dry cell weight at run hour 15.5 [2, 6] [mg/g]","Monatin/dry cell weight at run hour 25.6 [2, 6] [mg/g]","Monatin/dry cell weight at run hour 31 [2, 6] [mg/g]","Monatin/dry cell weight at run hour 15.5 [2, 7] [mg/g]","Monatin/dry cell weight at run hour 25.6 [2, 7] [mg/g]","Monatin/dry cell weight at run hour 31 [2, 7] [mg/g]",increase in monatin/dcw ([2]; E. coli MG1655::aspCproA pProNde) [fold],"Optical Density @ 600 nM, 6 hours [3]","Optical Density @ 600 nM, 24 hours [3]",decrease in growth ([4]; deletion strain),"Optical Density @ 600 nM, 6 hours ([4]; emrB knockout mutant)","Optical Density @ 600 nM, 24 hours ([4]; emrB knockout mutant)"
C[C@@H](N)C(=O)O [D-alanine],0.33,,,,,,,,,,,,,,,,,,,
"N#CC(C#N)=NNc1cccc(Cl)c1 [CCCP, carbonyl cyanide 3-chlorophenylhydrazone]",,greater than 1.8 fold,> 3.5,6.4,22.5,34.3,33.0,16.2,38.0,52.1,64.2,0.7,6.7,12.4,2,0.034,1.113,eighty fold/ninety nine percent decrease in growth,0.024,0.014
N[C@H](CCC(=O)O)C(=O)O [D-glutamate],0.47,,,,,,,,,,,,,,,,,,,
